Reference: paper PMC10006169, “A phase I trial of LXS196, a protein kinase C (PKC) inhibitor, for metastatic uveal melanoma” (British Journal of Cancer, 2023)

Tested on: patients with MUM
Assay: Adverse events suspected to be study drug related (NCI-CTCAE v4.03)
Type: in vivo, human
Procedure: Routine safety assessments, including laboratory assessments, physical examinations, vital signs and electrocardiograms (ECGs), were conducted at regular intervals throughout the study and more frequently as needed following patient assessment by the treating physician. Adverse events (AEs) were assessed continuously according to the National Cancer Institute Common Terminology Criteria for Adverse Events (NCI-CTCAE) v4.03.

CC1(N)CCN(c2cccnc2NC(=O)c2nc(-c3ncccc3C(F)(F)F)cnc2N)CC1 [LXS196]
Nausea, grade ≥3 (300 mg QD): 0 n (%)
Patients with ≥1 AE, all grades (300 mg QD): 14 (93.3) n (%)
Patients with ≥1 AE, grade ≥3 (300 mg QD): 2 (13.3) n (%)
Rash, all grades (300 mg QD): 3 (20.0) n (%)
Rash, grade ≥3 (300 mg QD): 0 n (%)
Vomiting, all grades (300 mg QD): 5 (33.3) n (%)
Vomiting, grade ≥3 (300 mg QD): 0 n (%)
ALT increased, all grades (500 mg QD): 3 (27.3) n (%)
ALT increased, grade ≥3 (500 mg QD): 1 (9.1) n (%)
AST increased, all grades (500 mg QD): 4 (36.4) n (%)
AST increased, grade ≥3 (500 mg QD): 1 (9.1) n (%)
Asthenia, all grades (500 mg QD): 2 (18.2) n (%)
Asthenia, grade ≥3 (500 mg QD): 0 n (%)
Blood creatinine increased, all grades (500 mg QD): 0 n (%)
Blood creatinine increased, grade ≥3 (500 mg QD): 0 n (%)
Constipation, all grades (500 mg QD): 0 n (%)
Constipation, grade ≥3 (500 mg QD): 0 n (%)
Diarrhoea, all grades (500 mg QD): 4 (36.4) n (%)
Diarrhoea, grade ≥3 (500 mg QD): 0 n (%)
Dry skin, all grades (500 mg QD): 0 n (%)
Dry skin, grade ≥3 (500 mg QD): 0 n (%)
Fatigue, all grades (500 mg QD): 0 n (%)
Fatigue, grade ≥3 (500 mg QD): 0 n (%)
Hypotension, all grades (500 mg QD): 4 (36.4) n (%)
Hypotension, grade ≥3 (500 mg QD): 3 (27.3) n (%)
Nausea, all grades (500 mg QD): 8 (72.7) n (%)
Nausea, grade ≥3 (500 mg QD): 0 n (%)
Patients with ≥1 AE, all grades (500 mg QD): 10 (90.9) n (%)
Patients with ≥1 AE, grade ≥3 (500 mg QD): 4 (36.4) n (%)
Rash, all grades (500 mg QD): 0 n (%)
Rash, grade ≥3 (500 mg QD): 0 n (%)
Vomiting, all grades (500 mg QD): 5 (45.5) n (%)
Vomiting, grade ≥3 (500 mg QD): 0 n (%)
ALT increased, all grades (800 mg QD): 0 n (%)
ALT increased, grade ≥3 (800 mg QD): 0 n (%)
AST increased, all grades (800 mg QD): 0 n (%)
AST increased, grade ≥3 (800 mg QD): 0 n (%)
Asthenia, all grades (800 mg QD): 0 n (%)
Asthenia, grade ≥3 (800 mg QD): 0 n (%)
Blood creatinine increased, all grades (800 mg QD): 0 n (%)
Blood creatinine increased, grade ≥3 (800 mg QD): 0 n (%)
Constipation, all grades (800 mg QD): 0 n (%)
Constipation, grade ≥3 (800 mg QD): 0 n (%)
Diarrhoea, all grades (800 mg QD): 1 (100) n (%)
Diarrhoea, grade ≥3 (800 mg QD): 0 n (%)
Dry skin, all grades (800 mg QD): 0 n (%)
Dry skin, grade ≥3 (800 mg QD): 0 n (%)
Fatigue, all grades (800 mg QD): 0 n (%)
Fatigue, grade ≥3 (800 mg QD): 0 n (%)
Hypotension, all grades (800 mg QD): 1 (100) n (%)
Hypotension, grade ≥3 (800 mg QD): 1 (100) n (%)
Nausea, all grades (800 mg QD): 1 (100) n (%)
Nausea, grade ≥3 (800 mg QD): 0 n (%)
Patients with ≥1 AE, all grades (800 mg QD): 1 (100) n (%)
Patients with ≥1 AE, grade ≥3 (800 mg QD): 1 (100) n (%)
Rash, all grades (800 mg QD): 0 n (%)
Rash, grade ≥3 (800 mg QD): 0 n (%)
Vomiting, all grades (800 mg QD): 0 n (%)
Vomiting, grade ≥3 (800 mg QD): 0 n (%)
ALT increased, all grades (1000 mg QD): 1 (25.0) n (%)
ALT increased, grade ≥3 (1000 mg QD): 0 n (%)
AST increased, all grades (1000 mg QD): 0 n (%)
AST increased, grade ≥3 (1000 mg QD): 0 n (%)
Asthenia, all grades (1000 mg QD): 0 n (%)
Asthenia, grade ≥3 (1000 mg QD): 0 n (%)
Blood creatinine increased, all grades (1000 mg QD): 0 n (%)
Blood creatinine increased, grade ≥3 (1000 mg QD): 0 n (%)
Constipation, all grades (1000 mg QD): 0 n (%)
Constipation, grade ≥3 (1000 mg QD): 0 n (%)
Diarrhoea, all grades (1000 mg QD): 4 (100) n (%)
Diarrhoea, grade ≥3 (1000 mg QD): 0 n (%)
Dry skin, all grades (1000 mg QD): 1 (25.0) n (%)
Dry skin, grade ≥3 (1000 mg QD): 0 n (%)
Fatigue, all grades (1000 mg QD): 3 (75.0) n (%)
Fatigue, grade ≥3 (1000 mg QD): 0 n (%)
Hypotension, all grades (1000 mg QD): 2 (50.0) n (%)
Hypotension, grade ≥3 (1000 mg QD): 1 (25.0) n (%)
Nausea, all grades (1000 mg QD): 4 (100) n (%)
Nausea, grade ≥3 (1000 mg QD): 0 n (%)
Patients with ≥1 AE, all grades (1000 mg QD): 4 (100) n (%)
Patients with ≥1 AE, grade ≥3 (1000 mg QD): 2 (50.0) n (%)
Rash, all grades (1000 mg QD): 0 n (%)
Rash, grade ≥3 (1000 mg QD): 0 n (%)
Vomiting, all grades (1000 mg QD): 0 n (%)
Vomiting, grade ≥3 (1000 mg QD): 0 n (%)
ALT increased, all grades (All BID): 8 (26.7) n (%)
ALT increased, grade ≥3 (All BID): 2 (6.7) n (%)
AST increased, all grades (All BID): 6 (20.0) n (%)
AST increased, grade ≥3 (All BID): 2 (6.7) n (%)
Asthenia, all grades (All BID): 7 (23.3) n (%)
Asthenia, grade ≥3 (All BID): 0 n (%)
Blood creatinine increased, all grades (All BID): 5 (16.7) n (%)
Blood creatinine increased, grade ≥3 (All BID): 0 n (%)
Constipation, all grades (All BID): 3 (10.0) n (%)
Constipation, grade ≥3 (All BID): 0 n (%)
Diarrhoea, all grades (All BID): 16 (53.3) n (%)
Diarrhoea, grade ≥3 (All BID): 1 (3.3) n (%)
